Values after ≈ are worked out from the molar mass of the structure shown.
System: Mycobacterium tuberculosis
Assay: Antimycobacterial activity against InhA overexpressing Mycobacterium tuberculosis InhA-OE
Format: functional

SMILES | MIC
NNC(=O)c1ccncc1 [ISONIAZID] | 0.74 µM (≈ 0.101 µg/mL)
Cn1cc(O)nc1NC(=O)c1cc(C(N)=S)ccn1 | 1.99 µM (≈ 0.552 µg/mL)
Cn1cc(C#N)nc1NC(=O)c1cc(C(N)=S)ccn1 | 2.53 µM (≈ 0.724 µg/mL)
Cn1c(NC(=O)c2cc(C(N)=S)ccn2)nc2cc(O)ccc21 | 0.54 µM (≈ 0.177 µg/mL)
COc1ccc2c(c1)nc(NC(=O)c1cc(C(N)=S)ccn1)n2C | 0.72 µM (≈ 0.246 µg/mL)

Reference: ChEMBL document CHEMBL5143581, “Design, synthesis and molecular docking studies of imidazole and benzimidazole linked ethionamide derivatives as inhibitors of InhA and antituberculosis agents” (Bioorg Med Chem Lett, 2022)
